Reference: ChEMBL document CHEMBL2380247, “Synthesis and biological evaluation of novel aliphatic amido-quaternary ammonium salts for anticancer chemotherapy: part II” (2013)
The source made the active and inactive calls. No cut-off for these calls is given here.

Legend:
MDA-MB-231 [1] = experiment: Antiproliferative activity against human MDA-MB-231 cells at 0.3 uM by SRB assay; format: functional
NCI-H23 [2] = experiment: Antiproliferative activity against human NCI-H23 cells at 3 uM by SRB assay; format: functional
PC-3 [3] = experiment: Antiproliferative activity against human PC3 cells at 1 uM by SRB assay; format: functional
NCI-H23 [4] = experiment: Antiproliferative activity against human NCI-H23 cells by SRB assay; format: functional
ACHN [5] = experiment: Antiproliferative activity against human ACHN cells at 3 uM by SRB assay; format: functional
NCI-H23 [6] = experiment: Antiproliferative activity against human NCI-H23 cells at 0.3 uM by SRB assay; format: functional
NUGC-3 [7] = experiment: Antiproliferative activity against human NUGC3 cells at 3 uM by SRB assay; format: functional
PC-3 [8] = experiment: Antiproliferative activity against human PC3 cells at 3 uM by SRB assay; format: functional
PC-3 [9] = experiment: Antiproliferative activity against human PC3 cells at 0.3 uM by SRB assay; format: functional
PC-3 [10] = experiment: Antiproliferative activity against human PC3 cells at 0.1 uM by SRB assay; format: functional
ACHN [11] = experiment: Antiproliferative activity against human ACHN cells at 10 uM by SRB assay; format: functional
NUGC-3 [12] = experiment: Antiproliferative activity against human NUGC3 cells at 0.3 uM by SRB assay; format: functional
PC-3 [13] = experiment: Antiproliferative activity against human PC3 cells at 10 uM by SRB assay; format: functional
HCT-15 [14] = experiment: Antiproliferative activity against human HCT15 cells at 3 uM by SRB assay; format: functional
HCT-15 [15] = experiment: Antiproliferative activity against human HCT15 cells by SRB assay; format: functional
HCT-15 [16] = experiment: Antiproliferative activity against human HCT15 cells at 0.3 uM by SRB assay; format: functional
MDA-MB-231 [17] = experiment: Antiproliferative activity against human MDA-MB-231 cells at 10 uM by SRB assay; format: functional
MDA-MB-231 [18] = experiment: Antiproliferative activity against human MDA-MB-231 cells at 1 uM by SRB assay; format: functional
NCI-H23 [19] = experiment: Antiproliferative activity against human NCI-H23 cells at 1 uM by SRB assay; format: functional
NUGC-3 [20] = experiment: Antiproliferative activity against human NUGC3 cells at 1 uM by SRB assay; format: functional
MDA-MB-231 [21] = experiment: Antiproliferative activity against human MDA-MB-231 cells by SRB assay; format: functional
MDA-MB-231 [22] = experiment: Antiproliferative activity against human MDA-MB-231 cells at 0.1 uM by SRB assay; format: functional
NCI-H23 [23] = experiment: Antiproliferative activity against human NCI-H23 cells at 10 uM by SRB assay; format: functional
NUGC-3 [24] = experiment: Antiproliferative activity against human NUGC3 cells at 0.1 uM by SRB assay; format: functional
ACHN [25] = experiment: Antiproliferative activity against human ACHN cells by SRB assay; format: functional
NCI-H23 [26] = experiment: Antiproliferative activity against human NCI-H23 cells at 0.1 uM by SRB assay; format: functional
HCT-15 [27] = experiment: Antiproliferative activity against human HCT15 cells at 10 uM by SRB assay; format: functional
[28] = molecular target: Rho-related GTP-binding protein RhoB (Homo sapiens) (UniProt P62745); experiment: Transactivation of RhoB in human HeLa cells by luciferase reporter assay; format: cell-based
Sequence of Rho-related GTP-binding protein RhoB (Homo sapiens) (P62745 whole entry): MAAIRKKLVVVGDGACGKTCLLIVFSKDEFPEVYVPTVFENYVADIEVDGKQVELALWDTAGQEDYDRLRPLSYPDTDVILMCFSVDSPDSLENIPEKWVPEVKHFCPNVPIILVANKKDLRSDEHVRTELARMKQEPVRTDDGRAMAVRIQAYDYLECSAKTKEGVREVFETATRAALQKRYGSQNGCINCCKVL

ACHN [29] = experiment: Antiproliferative activity against human ACHN cells at 1 uM by SRB assay; format: functional
MDA-MB-231 [30] = experiment: Antiproliferative activity against human MDA-MB-231 cells at 3 uM by SRB assay; format: functional
ACHN [31] = experiment: Antiproliferative activity against human ACHN cells at 0.3 uM by SRB assay; format: functional
ACHN [32] = experiment: Antiproliferative activity against human ACHN cells at 0.1 uM by SRB assay; format: functional
PC-3 [33] = experiment: Antiproliferative activity against human PC3 cells by SRB assay; format: functional
HCT-15 [34] = experiment: Antiproliferative activity against human HCT15 cells at 0.1 uM by SRB assay; format: functional
NUGC-3 [35] = experiment: Antiproliferative activity against human NUGC3 cells by SRB assay; format: functional
NUGC-3 [36] = experiment: Antiproliferative activity against human NUGC3 cells at 10 uM by SRB assay; format: functional
HCT-15 [37] = experiment: Antiproliferative activity against human HCT15 cells at 1 uM by SRB assay; format: functional

Compound CCCCCCCCCCCCCCCC(=O)NCCC[N+](C)(C)C has a growth, % of control at 0.3 µM (MDA-MB-231 [1]) of 98.3%, a growth, % of control at 3 µM (NCI-H23 [2]) of 67.8% and a growth, % of control at 1 µM (PC-3 [3]) of 62.6%. The GI50 (NCI-H23 [4]) was 2150 nM, the growth, % of control at 3 µM (ACHN [5]) was 66% and the growth, % of control at 0.3 µM (NCI-H23 [6]) was 104%. It also gave a growth, % of control at 3 µM (NUGC-3 [7]) of 34.9%, a growth, % of control at 3 µM (PC-3 [8]) of 19.1% and a growth, % of control at 0.3 µM (PC-3 [9]) of 85.2%. For the same compound, the growth, % of control at 0.1 µM (PC-3 [10]) was 90.6%, the growth, % of control at 10 µM (ACHN [11]) was 42.5% and the growth, % of control at 0.3 µM (NUGC-3 [12]) was 109%. For the same compound, the growth, % of control at 10 µM (PC-3 [13]) was -1.77%, the growth, % of control at 3 µM (HCT-15 [14]) was 71.1% and the GI50 (HCT-15 [15]) was 2560 nM. It also gave a growth, % of control at 0.3 µM (HCT-15 [16]) of 104%, a growth, % of control at 10 µM (MDA-MB-231 [17]) of 25.1% and a growth, % of control at 1 µM (MDA-MB-231 [18]) of 96.6%. The growth, % of control at 1 µM (NCI-H23 [19]) was 93%, the growth, % of control at 1 µM (NUGC-3 [20]) was 72.8% and the GI50 (MDA-MB-231 [21]) was 2180 nM. It also gave a growth, % of control at 0.1 µM (MDA-MB-231 [22]) of 101%, a growth, % of control at 10 µM (NCI-H23 [23]) of 18.3% and a growth, % of control at 0.1 µM (NUGC-3 [24]) of 112%. The GI50 (ACHN [25]) was 3360 nM, the growth, % of control at 0.1 µM (NCI-H23 [26]) was 106% and the growth, % of control at 10 µM (HCT-15 [27]) was 26.1%. The Activity [28] was “Active”, the growth, % of control at 1 µM (ACHN [29]) was 91.8% and the growth, % of control at 3 µM (MDA-MB-231 [30]) was 61.6%. The growth, % of control at 0.3 µM (ACHN [31]) was 94.4%, the growth, % of control at 0.1 µM (ACHN [32]) was 97% and the GI50 (PC-3 [33]) was 600 nM. For the same compound, the growth, % of control at 0.1 µM (HCT-15 [34]) was 110%, the GI50 (NUGC-3 [35]) was 1070 nM and the growth, % of control at 10 µM (NUGC-3 [36]) was 20.1%. For the same compound, the growth, % of control at 1 µM (HCT-15 [37]) was 97.4%.

In the case of C=CC[N+](CC)(CC)CCN(C)C(=O)CCCCCCCCCCCCCCC, the growth, % of control at 0.3 µM (MDA-MB-231 [1]) is reported as 92.5%, the growth, % of control at 3 µM (NCI-H23 [2]) is reported as 10.7% and the growth, % of control at 1 µM (PC-3 [3]) is reported as 0.8%. For the same compound, the GI50 (NCI-H23 [4]) was 170 nM, the growth, % of control at 3 µM (ACHN [5]) was 8.1% and the growth, % of control at 0.3 µM (NCI-H23 [6]) was 54.8%. It also gave a growth, % of control at 3 µM (NUGC-3 [7]) of 5.3%, a growth, % of control at 3 µM (PC-3 [8]) of -14.3% and a growth, % of control at 0.3 µM (PC-3 [9]) of 81.8%. For the same compound, the growth, % of control at 0.1 µM (PC-3 [10]) was 92.9%, the growth, % of control at 10 µM (ACHN [11]) was -18.9% and the growth, % of control at 0.3 µM (NUGC-3 [12]) was 76.9%. It also gave a growth, % of control at 10 µM (PC-3 [13]) of -19.6%, a growth, % of control at 3 µM (HCT-15 [14]) of 55.2% and a GI50 (HCT-15 [15]) of 1980 nM. For the same compound, the growth, % of control at 0.3 µM (HCT-15 [16]) was 87.9%, the growth, % of control at 10 µM (MDA-MB-231 [17]) was -6.4% and the growth, % of control at 1 µM (MDA-MB-231 [18]) was 38.7%. The growth, % of control at 1 µM (NCI-H23 [19]) was 19.3%, the growth, % of control at 1 µM (NUGC-3 [20]) was 22.9% and the GI50 (MDA-MB-231 [21]) was 440 nM. For the same compound, the growth, % of control at 0.1 µM (MDA-MB-231 [22]) was 96.1%, the growth, % of control at 10 µM (NCI-H23 [23]) was -15% and the growth, % of control at 0.1 µM (NUGC-3 [24]) was 101%. For the same compound, the GI50 (ACHN [25]) was 350 nM, the growth, % of control at 0.1 µM (NCI-H23 [26]) was 81.2% and the growth, % of control at 10 µM (HCT-15 [27]) was 32%. It also gave a growth, % of control at 1 µM (ACHN [29]) of 30.2%, a growth, % of control at 3 µM (MDA-MB-231 [30]) of 21% and a growth, % of control at 0.3 µM (ACHN [31]) of 87.7%. It also gave a growth, % of control at 0.1 µM (ACHN [32]) of 115%, a GI50 (PC-3 [33]) of 200 nM and a growth, % of control at 0.1 µM (HCT-15 [34]) of 86.1%. It also gave a GI50 (NUGC-3 [35]) of 270 nM, a growth, % of control at 10 µM (NUGC-3 [36]) of -6.2% and a growth, % of control at 1 µM (HCT-15 [37]) of 78.6%.
